Results: patent publication US20260070917A1, “CYCLIN DEPENDENT KINASE DEGRADERS AND METHODS OF USE THEREOF” (Differentiated Therapeutics Inc, priority 2023, published 2026)

Tests used:
[1] = biological target: T1, CDK2 (Homo sapiens, UniProt P24941); assay: HiBit Assay Protocol for CDK2 (HIBIT protein quantification, degradation); format: cell-based; settings: HEK293-CDK2-Hibit cells, compound treatment for 6 hours; for DC50: ABS DC50
T1 construct: host or cells: HEK293-CDK2-Hibit
Procedure: HiBit Assay Protocol for CDK2
• 1. The culture medium for HEK293-CDK2-Hibit cells was prepared using DMEM with 10% FBS. • 2. Cells were cultivated in T-75 flasks in a cell culture incubator set at 37° C., 5% CO2, 95% relative humidity. Cells were allowed to reach 80-90% confluence before detaching and splitting. • 3. Cultivated cells were rinsed in T-75 flasks with 5 mL PBS. Aspirate off Added was 1.5 mL trypsin, and the cells were incubated at 37° C. for approximately 5 minutes or until the cells detached and floated. • 4. Trypsin was inactivated by adding excess serum containing medium. • 5. Cells were harvested from flask into cell culture medium and then the cell number was counted. HEK293-CDK2-Hibit cells were seeded into 384-well plate (cell density: 1.6×10^5 cells/well/50 uL medium) in DMEM medium according to the plate map below and incubated overnight at 37° C. and 5% CO2. • Note: Cell Cultured Medium: 90% DMEM+10% FBS+1% Penicillin-Streptomycin Liquid
(§1) • 1. Test compounds were dissolved at 10 mM DMS stock solution. 45 uL of stock solution was transferred to a 384 pp-plate. A 3-fold, 10-point dilution was performed via transferring 15 uL compound into 30 uL DMSO by using TECAN liquid handler. • 2. The plates were spinned at room temperature at 1,000 RPM for 1 minute. • 3. 50 nL of diluted compound was transferred from compound source plate into the cell plate by Echo. • 4. After compound treatment for 6 hours, the plate was removed from incubators and equilibrated at room temperature for 15 minutes. The HiBit reagent was prepared, consisting of the following ratios: 10 mL of Nano-Glo®-HiBiT Lytic Buffer, 200 μL of Nano-Glo®-HiBiT Lytic Substrate and 100 uL of LgBiT Protein, mixed thoroughly. 20 μL of HiBit reagent was added into each well and the plates were spinned at room temperature at 1,000 RPM for 1 minute to be detected. Then the plates were shaken at 600 RPM at room temperature for 20 minutes, and read by EnVision. • 5. The inhibition activity was calculated following the formula below:
(§2) [formula] • Note: Where HC is obtained from cells treated with […] only; LC is obtained from culture medium only. • 6. ABS DC50 was calculated by fitting the Curve using Xlfit (v5.3.1.3), equation 201: […]

[2] = biological target: T2, CCNE1 (Homo sapiens, UniProt P24864); assay: HiBit Assay Protocol for CCNE1 (HIBIT protein quantification, degradation); format: cell-based; settings: HEK293-CCNE1-Hibit cells, compound treatment for 6 hours
T2 construct: host or cells: HEK293-CCNE1-Hibit
Procedure: HiBit Assay Protocol for CCNE1
• 1. The culture medium for HEK293-CCNE1-Hibit cell was prepared using EMEM with […]. • 2. Cells were cultivated in T-75 flasks in a cell culture incubator set at 37° C., 5% CO2, 95% relative humidity. Cells were allowed to reach 80-90% confluence before detaching and splitting. • 3. Cultivated cells were rinsed in T-75 flasks with 5 mL PBS. Aspirate off Added was 1.5 mL trypsin, and the cells were incubated at 37° C. for approximately 5 minutes or until the cells detached and floated. • 4. Trypsin was inactivated by adding excess serum containing medium. • 5. Cells were harvested from flask into cell culture medium and then the cell number was counted. HEK293-CCNE1-Hibit cell were seeded into 384-well plate (cell density: 1.6×10^5 cells/well/50 uL medium) in EMEM medium according to the plate map below and incubated overnight at 37° C. and […]. • Note: Cell Cultured Medium: 90% EMEM+10% FBS+1% Penicillin-Streptomycin Liquid
as §1, with “mM DMSO” for “mM DMS”, “45 μL” for “45 uL”, “100 μL” for “100 uL”, “Protein, mix” for “Protein, mixed”
as §2

T2 sequence (P24864 whole entry): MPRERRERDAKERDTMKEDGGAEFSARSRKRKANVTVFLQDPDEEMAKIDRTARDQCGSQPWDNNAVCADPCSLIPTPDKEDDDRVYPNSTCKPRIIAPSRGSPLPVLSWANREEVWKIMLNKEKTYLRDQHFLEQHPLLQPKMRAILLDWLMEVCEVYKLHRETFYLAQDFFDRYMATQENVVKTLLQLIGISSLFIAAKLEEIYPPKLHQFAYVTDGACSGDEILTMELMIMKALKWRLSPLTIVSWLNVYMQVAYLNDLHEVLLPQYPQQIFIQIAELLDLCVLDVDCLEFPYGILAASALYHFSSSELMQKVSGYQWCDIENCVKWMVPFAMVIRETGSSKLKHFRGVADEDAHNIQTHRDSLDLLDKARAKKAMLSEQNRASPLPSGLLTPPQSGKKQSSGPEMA

Q: With `C[C@H](c1cc(S(=O)(=O)N2CC[C@H](Nc3ncc4c(n3)N([C@@H]3CCC[C@@H](O)C3)C(=O)C43CC3)[C@H](F)C2)ccc1F)N1CCN(c2ccc3c(N4CCC(=O)NC4=O)nn(C)c3c2)CC1` [Compound 210] as the compound, how does the “CDK2 HIBIT Protein Quantification Maximum” value [1] read?
A: The value was 91%.

Q: What about the DC50 [1] of the same compound?
A: Its DC50 is 4.7 nM.

Q: What about the “CCNE1 HIBIT Protein Quantification Maximum” value [2] of the same compound?
A: Its value is 47%.

Q: Which results are given for `C[C@H]1CN(c2ccc3c(N4CCC(=O)NC4=O)nn(C)c3c2)CCN1[C@@H](C)c1cccc(S(=O)(=O)N2CC[C@H](Nc3ncc4c(n3)N([C@@H]3CCC[C@@H](O)C3)C(=O)C43CC3)[C@H](F)C2)c1` [Compound 194]?
A: CDK2 HIBIT Protein Quantification Maximum [1]: 94%; DC50 [1]: 3.86 nM; CCNE1 HIBIT Protein Quantification Maximum [2]: 42%

Q: How did the “CDK2 HIBIT Protein Quantification Maximum” value [1] turn out when `CC1CCCC1N1C(=O)C2(CC2)c2cnc(NC3CCN(S(=O)(=O)N4CCC5(CCCN5C(=O)CCCCCCCc5cccc6c5n(C)c(=O)n6C5CCC(=O)NC5=O)C4)CC3)nc21` (stereo not drawn) [Compound 2, 3-{3-Methyl-4-[8-(7-{4-[7′-(2-methylcyclopentyl)-6′-oxospiro[cyclopropane-1,5′-pyrrolo[2,3-d]pyrimidin]-2′-ylamino]piperidin-1-ylsulfonyl}-1,7-diazaspiro[4.4]nonan-1-yl)-8-oxooctyl]-2-oxo-1,3-benzodiazol-1-yl}piperidine-2,6-dione] was run?
A: Its value is 45.7%.

Q: And the “CCNE1 HIBIT Protein Quantification Maximum” value [2]?
A: The value was 41.1%.

Q: With `Cn1nc(N2CCC(=O)NC2=O)c2ccc(C3CCN(Cc4cccc(S(=O)(=O)N5CCC(Nc6ncc7c(n6)N([C@@H]6CCC[C@@H](O)C6)C(=O)C76CCC6)CC5)c4)CC3)cc21` [Compound 174, 1-[6-(1-{[3-(4-{7′-[(1R,3R)-3-Hydroxycyclohexyl]-6′-oxospiro[cyclobutane-1,5′-pyrrolo[2,3-d]pyrimidin]-2′-ylamino}piperidin-1-ylsulfonyl)phenyl]methyl}piperidin-4-yl)-1-methylindazol-3-yl]-1,3-diazinane-2,4-dione] as the compound, how does the “CDK2 HIBIT Protein Quantification Maximum” value [1] read?
A: Its value is 82%.

Q: What about the DC50 [1] of the same compound?
A: The DC50 was 3.58 nM.

Q: What about the “CCNE1 HIBIT Protein Quantification Maximum” value [2] of the same compound?
A: Its value is 47%.

Q: With `CC1CCCC1N1C(=O)C2(CC2)c2cnc(NC3CCN(S(=O)(=O)N4CC5(CCN(C(=O)CCCCCCCc6cccc7c6n(C)c(=O)n7C6CCC(=O)NC6=O)CC5)C4)CC3)nc21` (stereo not drawn) [Compound 4] as the compound, how does the “CDK2 HIBIT Protein Quantification Maximum” value [1] read?
A: Its value is 56.5%.

Q: What about the DC50 [1] of the same compound?
A: The DC50 was 6.7 nM.

Q: What about the “CCNE1 HIBIT Protein Quantification Maximum” value [2] of the same compound?
A: The value was 21.2%.

Q: `C[C@H](c1cccc(S(=O)(=O)N2CC[C@H](Nc3ncc4c(n3)N([C@@H]3CCC[C@@H](O)C3)C(=O)C43CC3)[C@H](F)C2)c1)N1CCN(c2ccc3c(N4CCC(=O)NC4=O)nn(C)c3c2)C[C@@H]1C` [Compound 193] was tested. Which “CDK2 HIBIT Protein Quantification Maximum” value [1] did it give?
A: The value was 85%.

Q: And the DC50 [1]?
A: The DC50 was 10.3 nM.

Q: What about the “CCNE1 HIBIT Protein Quantification Maximum” value [2] of the same compound?
A: Its value is 48%.

Q: `CC1CCCC1N1C(=O)C2(CC2)c2cnc(NC3CCN(S(=O)(=O)N4CC5CN(C(=O)CCCCCCCc6cccc7c6n(C)c(=O)n7C6CCC(=O)NC6=O)CC54)CC3)nc21` (stereo not drawn) [Compound 5] was tested. Which “CDK2 HIBIT Protein Quantification Maximum” value [1] did it give?
A: Its value is 24.9%.

Q: And the “CCNE1 HIBIT Protein Quantification Maximum” value [2]?
A: The value was 21.9%.

Q: How did the “CDK2 HIBIT Protein Quantification Maximum” value [1] turn out when `CC1CCCC1N1C(=O)C2(CC2)c2cnc(NC3CCN(S(=O)(=O)C4CCN(C(=O)CCCCCCCc5cccc6c5n(C)c(=O)n6C5CCC(=O)NC5=O)C4)CC3)nc21` (stereo not drawn) [Compound 6] was run?
A: Its value is 66.2%.

Q: And the DC50 [1]?
A: Its DC50 is 14.6 nM.

Q: And the “CCNE1 HIBIT Protein Quantification Maximum” value [2]?
A: The value was 30%.

Q: Which “CDK2 HIBIT Protein Quantification Maximum” value [1] does the source give for `C[C@@H](c1cc(S(=O)(=O)N2CC[C@H](Nc3ncc4c(n3)N([C@@H]3CCC[C@@H](O)C3)C(=O)C43CC3)[C@H](F)C2)ccc1F)N1CCN(c2ccc3c(N4CCC(=O)NC4=O)nn(C)c3c2)CC1` [Compound 211] here?
A: The value was 88%.

Q: And the DC50 [1]?
A: The DC50 was 12.1 nM.

Q: And the “CCNE1 HIBIT Protein Quantification Maximum” value [2]?
A: The value was 40%.

Q: Which “CDK2 HIBIT Protein Quantification Maximum” value [1] does the source give for `CC1CCCC1N1C(=O)C2(CC2)c2cnc(NC3CCN(S(=O)(=O)N4CCN(C(=O)CCCCc5cccc6c5n(C)c(=O)n6C5CCC(=O)NC5=O)CC4)CC3)nc21` (stereo not drawn) [Compound 8] here?
A: The value was 59.2%.

Q: And the DC50 [1]?
A: Its DC50 is 8.8 nM.

Q: And the “CCNE1 HIBIT Protein Quantification Maximum” value [2]?
A: Its value is 24.7%.

Q: What does the source list for `CC1CCCC1N1C(=O)C2(CC2)c2cnc(NC3CCN(S(=O)(=O)N4CCN(C(=O)CCCc5ccc6c(c5)n(C)c(=O)n6C5CCC(=O)NC5=O)CC4)CC3)nc21` (stereo not drawn) [Compound 7]?
A: CDK2 HIBIT Protein Quantification Maximum [1]: 37.9%; CCNE1 HIBIT Protein Quantification Maximum [2]: 21.2%

Q: With `CC(C)C1CC(c2ccc3c(N4CCC(=O)NC4=O)nn(C)c3c2)CCN1C(C)c1cccc(S(=O)(=O)N2CC[C@H](Nc3ncc4c(n3)N([C@@H]3CCC[C@@H](O)C3)C(=O)C43CC3)[C@H](F)C2)c1` (stereo partly drawn) [Compound 190] as the compound, how does the “CDK2 HIBIT Protein Quantification Maximum” value [1] read?
A: The value was 70%.

Q: And the DC50 [1]?
A: Its DC50 is 13.6 nM.

Q: What about the “CCNE1 HIBIT Protein Quantification Maximum” value [2] of the same compound?
A: Its value is 27%.

Q: With `CC1CCCC1N1C(=O)C2(CC2)c2cnc(NC3CCN(S(=O)(=O)N4CC5(CCCN(C(=O)CCCCCCCc6cccc7c6n(C)c(=O)n7C6CCC(=O)NC6=O)C5)C4)CC3)nc21` (stereo not drawn) [Compound 3] as the compound, how does the “CDK2 HIBIT Protein Quantification Maximum” value [1] read?
A: Its value is 34.6%.

Q: What about the “CCNE1 HIBIT Protein Quantification Maximum” value [2] of the same compound?
A: Its value is 19.4%.

Q: Which “CDK2 HIBIT Protein Quantification Maximum” value [1] does the source give for `CC1CCCC1N1C(=O)C2(CC2)c2cnc(NC3CCN(S(=O)(=O)N4CC5(CCN(C(=O)CCCCc6cccc7c6n(C)c(=O)n7C6CCC(=O)NC6=O)CC5)C4)CC3)nc21` (stereo not drawn) [Compound 9] here?
A: The value was 48.4%.

Q: Which results are given for `CC1CN(C(C)c2cccc(S(=O)(=O)N3CC[C@H](Nc4ncc5c(n4)N([C@@H]4CCC[C@@H](O)C4)C(=O)C54CC4)[C@H](F)C3)c2)CCC1c1ccc2c(N3CCC(=O)NC3=O)nn(C)c2c1` (stereo partly drawn) [Compound 189]?
A: CDK2 HIBIT Protein Quantification Maximum [1]: 88%; DC50 [1]: 2.62 nM; CCNE1 HIBIT Protein Quantification Maximum [2]: 47%

Q: Which “CDK2 HIBIT Protein Quantification Maximum” value [1] does the source give for `CC1CCCC1N1C(=O)C2(CC2)c2cnc(NC3CCN(S(=O)(=O)N4CCC5(CCN(C(=O)CCCCc6cccc7c6n(C)c(=O)n7C6CCC(=O)NC6=O)C5)C4)CC3)nc21` (stereo not drawn) [Compound 10] here?
A: Its value is 38.9%.

Q: What does the source list for `CC1CCCC1N1C(=O)C2(CC2)c2cnc(NC3CCN(S(=O)(=O)C4CCN(C(=O)CCCCCc5cccc6c5n(C)c(=O)n6C5CCC(=O)NC5=O)C4)CC3)nc21` (stereo not drawn) [Compound 1, 3-{3-Methyl-4-[6-(3-{4-[7′-(2-methylcyclopentyl)-6′-oxospiro[cyclopropane-1,5′-pyrrolo[2,3-d]pyrimidin]-2′-ylamino]piperidin-1-ylsulfonyl}pyrrolidin-1-yl)-6-oxohexyl]-2-oxo-1,3-benzodiazol-1-yl}piperidine-2,6-dione]?
A: CDK2 HIBIT Protein Quantification Maximum [1]: 70.2%; DC50 [1]: 16 nM; CCNE1 HIBIT Protein Quantification Maximum [2]: 30.9%

Q: How did the “CDK2 HIBIT Protein Quantification Maximum” value [1] turn out when `CC1CCCC1N1C(=O)C2(CC2)c2cnc(NC3CCN(S(=O)(=O)N4CCN(C(=O)CCCCc5ccc6c(c5)n(C)c(=O)n6C5CCC(=O)NC5=O)CC4)CC3)nc21` (stereo not drawn) [Compound 12] was run?
A: Its value is 34.6%.

Q: What about the “CCNE1 HIBIT Protein Quantification Maximum” value [2] of the same compound?
A: Its value is 16.9%.
